The subject of one series is human CMV. As to the kind of experiment: standard plaque inhibition assay, inhibitory effect against human CMV. Format: cell-based. The note with it: Human betaherpesvirus 5. The procedure: (§1) Compounds made in the foregoing examples were assayed for inhibitory effect against human CMV using the standard plaque inhibition assay (Lurain, "J. Vir." 66:7146-7152 (1992)). The cells used for the toxicity assay were normal human dermal fibroblasts.

Series [1] is described as follows: toxicity assay in normal human dermal fibroblasts. It is filed as cell-based. The procedure:
as §1

[2] abbreviates: human CMV, plaque inhibition assay (Table 8), read-out: IC50.

Each structure is given as a SMILES string. Like-named read-outs stand apart in the source and are kept apart here.

With `Nc1ccn([C@@H]2CC=C(P(=O)(O)O)O[C@@H]2CO)c(=O)n1` [(28'), 4-(cytosin-1-yl)-2,3-dideoxy-D-threo-hex-1-enopyranosyl phosphonic acid], the IC50 with human CMV (setting [2]) was 40 µM. For the same compound, the CC50 in series [1] is > 1000 µM.

In the series with human CMV, `Nc1ccn([C@@H]2C=C[C@H](P(=O)(O)O)O[C@@H]2CO)c(=O)n1` [(30), 4-(cytosin-1-yl)-2,3-dideoxy-β-D-threo-hex-2-enopyranosylphosphonic acid] came in with an IC50 of 10 µM. Besides, the CC50 in series [1] is > 1000 µM.

For the compound `Nc1ccn([C@@H]2CC[C@H](P(=O)(O)O)O[C@@H]2CO)c(=O)n1` [(32'), 4-(cytosin-1-yl)-β-D-threo-hexopyranosylphosphonic acid], the IC50 with human CMV (setting [2]) amounted to 80 µM. The CC50 in series [1] was > 1000 µM.

Consider `C[C@@H]1O[C@H](P(=O)(O)O)C=C[C@@H]1n1ccc(N)nc1=O` [(64), 4-(cytosin-1-yl)-2,3,6-trideoxy-β-L-threo-hex-2-enopyranosylphosphonic acid], for which the IC50 in the series on human CMV (setting [2]) amounted to 200 µM. Also, the CC50 in series [1] is > 1000 µM.

As to `C[C@@H]1OC(P(=O)(O)O)=CC[C@@H]1n1ccc(N)nc1=O` [(65), 4-(cytosin-1-yl)-2,3,6-trideoxy-L-threo-hex-1-enopyranosylphosphonic acid], the IC50 in the series with human CMV (setting [2]) was 300 µM. For the same compound, the CC50 in series [1] is > 1000 µM.

In the case of `Nc1ccn(C[C@@H](CO)OCP(=O)(O)O)c(=O)n1` [HPMPC, reference compound], the IC50 with human CMV (reference HPMPC, read-out: IC50) came out at 0.5 µM. Also, in series [1] (reference HPMPC, read-out: CC50), the CC50 was determined as 200 µM.

As usually defined, the IC50 is the concentration needed to halve the response being measured. One may read the CC50 as the concentration giving 50% cytotoxicity.

(Values after patent US5659023A, “Nucleotide analogues” (Gilead Sciences, Inc., priority 1995, dated 1997).)
